Test results reported in patent US7998989B2, “2-Imino-1,3-thiazoline-based compounds and T-type calcium channel inhibitors containing the same” (Korea Institute of Science and Technology, priority 2007, dated 2011).

Key:
[1] = target: T1, α1G T-type calcium channel (Homo sapiens, UniProt O43497); assay: Electrophysiological whole cell patch clamp measurement of T-type calcium channel current in HEK293 cells; format: cell-based; conditions: HEK293 cells expressing α1G
T1 construct: host or cells: HEK293
T1 sequence (O43497 whole entry): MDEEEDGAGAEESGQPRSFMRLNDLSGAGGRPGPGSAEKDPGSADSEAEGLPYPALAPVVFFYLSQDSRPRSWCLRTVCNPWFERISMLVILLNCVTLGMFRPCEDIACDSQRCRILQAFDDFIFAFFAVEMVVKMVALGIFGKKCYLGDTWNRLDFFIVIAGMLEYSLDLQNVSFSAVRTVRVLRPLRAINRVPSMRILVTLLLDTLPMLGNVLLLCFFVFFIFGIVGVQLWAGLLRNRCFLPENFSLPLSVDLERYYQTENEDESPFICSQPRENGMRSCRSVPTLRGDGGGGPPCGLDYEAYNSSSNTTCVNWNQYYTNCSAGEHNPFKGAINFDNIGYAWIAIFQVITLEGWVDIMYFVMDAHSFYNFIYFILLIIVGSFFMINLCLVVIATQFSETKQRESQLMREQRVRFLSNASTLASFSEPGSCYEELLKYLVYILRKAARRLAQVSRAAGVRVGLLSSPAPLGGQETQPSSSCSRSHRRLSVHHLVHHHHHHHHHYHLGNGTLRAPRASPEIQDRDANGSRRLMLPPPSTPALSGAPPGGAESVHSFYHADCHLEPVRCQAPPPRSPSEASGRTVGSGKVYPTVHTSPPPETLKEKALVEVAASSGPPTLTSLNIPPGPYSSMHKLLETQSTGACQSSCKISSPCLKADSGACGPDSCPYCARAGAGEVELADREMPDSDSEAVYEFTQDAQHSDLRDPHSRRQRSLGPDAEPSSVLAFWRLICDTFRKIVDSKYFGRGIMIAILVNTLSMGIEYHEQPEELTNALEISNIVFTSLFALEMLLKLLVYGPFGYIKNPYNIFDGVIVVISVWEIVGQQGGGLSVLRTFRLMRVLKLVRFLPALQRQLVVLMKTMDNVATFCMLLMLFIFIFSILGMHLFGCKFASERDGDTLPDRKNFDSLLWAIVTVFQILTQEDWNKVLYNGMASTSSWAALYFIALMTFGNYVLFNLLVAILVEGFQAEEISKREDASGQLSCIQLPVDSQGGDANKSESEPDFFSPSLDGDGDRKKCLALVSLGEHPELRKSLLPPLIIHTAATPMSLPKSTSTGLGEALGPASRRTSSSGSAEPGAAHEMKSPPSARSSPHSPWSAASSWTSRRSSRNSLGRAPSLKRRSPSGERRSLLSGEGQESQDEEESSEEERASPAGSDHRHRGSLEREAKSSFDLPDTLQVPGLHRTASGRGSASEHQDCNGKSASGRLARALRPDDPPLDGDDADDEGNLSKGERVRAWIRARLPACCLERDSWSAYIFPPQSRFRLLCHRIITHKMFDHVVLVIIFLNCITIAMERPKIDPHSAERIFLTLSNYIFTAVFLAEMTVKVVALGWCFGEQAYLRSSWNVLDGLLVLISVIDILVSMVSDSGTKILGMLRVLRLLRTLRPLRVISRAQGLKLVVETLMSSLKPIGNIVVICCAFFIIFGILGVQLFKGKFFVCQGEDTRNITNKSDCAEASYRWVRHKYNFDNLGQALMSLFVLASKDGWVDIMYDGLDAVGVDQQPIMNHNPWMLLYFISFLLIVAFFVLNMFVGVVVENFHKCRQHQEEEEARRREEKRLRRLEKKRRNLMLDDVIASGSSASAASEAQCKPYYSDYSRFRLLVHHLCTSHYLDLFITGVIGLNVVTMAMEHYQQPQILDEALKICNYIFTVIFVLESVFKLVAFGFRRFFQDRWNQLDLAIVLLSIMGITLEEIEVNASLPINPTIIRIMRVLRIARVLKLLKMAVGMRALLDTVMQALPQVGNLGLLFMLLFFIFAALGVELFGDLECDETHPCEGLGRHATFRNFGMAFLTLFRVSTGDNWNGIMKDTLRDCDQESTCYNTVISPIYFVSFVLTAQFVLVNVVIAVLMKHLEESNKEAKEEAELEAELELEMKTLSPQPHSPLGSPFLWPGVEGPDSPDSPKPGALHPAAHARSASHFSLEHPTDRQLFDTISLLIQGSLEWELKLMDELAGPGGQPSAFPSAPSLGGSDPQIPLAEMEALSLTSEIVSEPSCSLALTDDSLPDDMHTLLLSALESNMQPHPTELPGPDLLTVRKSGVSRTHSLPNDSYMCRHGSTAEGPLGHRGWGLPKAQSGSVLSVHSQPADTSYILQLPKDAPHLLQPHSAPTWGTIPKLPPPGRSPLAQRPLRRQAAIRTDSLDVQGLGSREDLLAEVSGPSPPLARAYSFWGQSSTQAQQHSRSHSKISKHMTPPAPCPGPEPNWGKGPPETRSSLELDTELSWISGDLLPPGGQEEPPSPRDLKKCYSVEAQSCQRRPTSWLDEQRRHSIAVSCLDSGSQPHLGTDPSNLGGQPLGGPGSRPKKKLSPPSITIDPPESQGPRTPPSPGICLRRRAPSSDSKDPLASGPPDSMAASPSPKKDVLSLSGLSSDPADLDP
Procedure: In the present invention, in order to examine an efficient inhibitor against the T-type calcium channel, a primary assay for T-type calcium channel inhibiting activity was conducted by a high-efficient assay using FDSS6000, wherein mammal HEK293 cell lines (originated from human kidney carcinoma cells) that specifically express α1G of the T-type calcium channel was used for primary assay. Through the primary assay, compounds that show meaningful inhibition effects were selected. The selected compounds were used in a second assay for T-type calcium channel inhibiting activity using an electrophysiological whole cell patch clamp method, wherein mammal HEK293 cell lines (originated from human kidney carcinoma cells) that specifically express α1G of the T-type calcium channel was used for the second assay. Mibefradil, which had been developed as a T-type calcium channel inhibitor, was used as a reference.
10% Fetal bovine serum (FBS) and 1% penicillin/streptomycin (v/v) were added to Dulbecco's modified Eagle's medium (DMEM), to be used as a media solution. The cells were cultured in an incubator under a wet condition of 95% air/5% CO2 and a temperature of 36.5° C. The media solution was refreshed every 3 or 4 days, and the cells were sub-cultured every week. Only the cells that expressed α1G T-type calcium channel were cultured using a G-418 (0.5 mg/ml) solution. The recording of the cells used in the T-type calcium channel activity analysis was conducted at 2-7 days after the cells were culturing on a cover slip coated with poly-L-lysine (0.5 mg/ml) when conducting every sub-culture. For analysis at a single cell level, the T-type calcium channel current was measured by an electrophysiological whole cell patch clamp method using EPC-9 amplifier (HEKA, German).
As solutions for analyzing T-type calcium channel activity, a solution including NaCl 140 mM, CaCl2 2 mM, and HEPES10 mM (pH 7.4, Sigma; 4-(2-hydroxyethyl)piperazine-1-ethanesulfonic acid) was used as an extracellular solution, and a solution including KCl 130 mM, HEPES 10 mM (Sigma), EGTA 11 mM (ethylene glycol-bis(2-aminoethylether)-N,N,N′,N′-tetraacetic acid, Sigma), and MgATP 5 mM (pH 7.4, Sigma) was used as an intracellular solution. The protocol for T-type calcium channel activity that is activated at low voltage is as follows. A micro-glass electrode with resistance of 3-4 MΩ wherein the above-prepared intracellular solution was filled was pricked into a single cell, to make a whole-cell recording mode. Thereafter, the cell membrane potential was fixed to −100 mV, and then the inward current due to the T-type calcium channel activity when hypopolarizing to −30 mV (50 ms duration) was measured every 10 seconds.
Each compound to be tested was dissolved in 100% dimethylsulfoxide (DMSO) to make a 10 mM stock solution. The effect of the compound on the T-type calcium channel current compound was initially examined in the stock solution with the 1000-times diluted concentration of 10 μM (containing 0.1% DMSO) and then examined in the solution with the concentration for IC50 measurement (mostly 0.1 to 100 μM), to obtain an IC50 value. More specifically, the cells were treated in each compound together with the extracellular solution for 30 to 60 seconds, and the inhibition level of peak current induced by the compound was calculated as a percentage, to obtain the % inhibition value as shown in Table 4.

[2] = target: T1, α1G T-type calcium channel; assay: Assay for % inhibiting activity against T-type calcium channel using FDSS6000 (fluo-3 calcium imaging, KCl activation); format: cell-based; conditions: 10 μM; HEK293 cells stably expressing α1G T-type calcium channel and Kir2.1; compounds of the examples
Procedure, shortened: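 Percent inhibition derived from […] area against untreated control (100%), after 75 s compound pre-exposure and 75 mM KCl activation. Cells: HEK293 with stable α1G plus Kir2.1, fluo-3/AM-labelled (5 μM), assayed in pH 7.4 HEPES containing 10 mM CaCl2.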

(2-cycloheptylimino-3-methyl-1,3-thiazolidine-4-yl)-N-(4-methyl-2-chlorophenyl)-acetamide hydrochloride [KHG24124]
HEK293cell (% Inhibition) 10 μM ([1]; 10 μM, inhibition of peak current): 87.1 ± 1.2%
IC50 ([1]; read-out: IC50 (a1G)): 1770 ± 100 nM
FDSS (% inhibition)/10uM [2]: 59.49%
